Common to all, as to assay: In Vitro Anti-Bacterial Activity Test (MIC, agar dilution)
Assay type in all cases: cell-based
A general note: Agar dilution tests growth on a series of plates holding different concentrations.

In assay [1] the test system is Enterobacter cloacae 1321E. Particulars: Enterobacter cloacae 1321E; Muller-Hinton agar, 37° C., 18 hours; read-out: MIC. Put shortly: (§1)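 Bacterial suspensions of 10^7 C.F.U./ml are inoculated onto Muller-Hinton agar containing graded compound levels. After 18 hours at 37° C., the lowest level showing no growth is recorded as MIC.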
The test system of assay [2] is Enterobacter cloacae P99. To be noted: Enterobacter cloacae, P99, 18 h. In short, it runs like this:
(§2)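 Via the agar dilution method, compound-supplemented Muller-Hinton plates received 10^7 C.F.U./ml inocula. Incubation ran 18 hours at 37° C., and MIC corresponded to the lowest concentration without growth.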

Assay [3] deals with Escherichia coli 078. Put shortly: as §1
In assay [4] the test system is Escherichia coli 1507E. To be noted: Muller-Hinton agar, 37° C. In short, it runs like this:
as §1

The subject of assay [5] is Escherichia coli DC0. Particulars: Muller-Hinton agar, 37° C., 18 hours, read-out: MIC. In short, it runs like this: as §1
The test system of assay [6] is Escherichia coli DC2. To be noted: Escherichia coli, DC2, 18 h. In short, it runs like this: as §1
For assay [7], the system named is Escherichia coli TEM. To be noted: Escherichia coli, 18 h, Muller-Hinton agar, 37° C. In short, it runs like this:
as §2

Assay [8] deals with Klebsiella aerogenes 1522E. Particulars: Klebsiella aerogenes, 1522E, 18 h. In short, it runs like this:
as §1

The subject of assay [9] is Klebsiella oxytoca 1082E. Particulars: Klebsiella oxytoca 1082E; Muller-Hinton agar, 37° C., 18 hours; read-out: MIC. Put shortly:
as §1

The subject of assay [10] is Pseudomonas aeruginosa 1592E. To be noted: Muller-Hinton agar, 37° C., 18 hours, read-out: MIC. Put shortly:
as §1

Assay [11] deals with Pseudomonas aeruginosa 1771M. To be noted: Pseudomonas aeruginosa, 1771M, 18 h, Muller-Hinton agar, 37° C. Put shortly:
as §1

Assay [12] deals with Pseudomonas aeruginosa 1771. To be noted: Pseudomonas aeruginosa 1771; Muller-Hinton agar, 37° C., 18 hours; read-out: MIC. Put shortly:
as §1

The test system of assay [13] is Pseudomonas aeruginosa 9027. Particulars: Muller-Hinton agar, 37° C., 18 hours, read-out: MIC. In short, it runs like this:
as §1

Assay [14] deals with Salmonella typhimurium. To be noted: Salmonella enterica; Salmonella typhimurium; Muller-Hinton agar, 37° C., 18 hours; read-out: MIC. In short, it runs like this:
as §1

For assay [15], the system named is Staphylococcus aureus 285. Particulars: Staphylococcus aureus, 285, 18 h. Put shortly:
as §1

In assay [16] the test system is Staphylococcus aureus 503. Particulars: Staphylococcus aureus 503; Muller-Hinton agar, 37° C., 18 hours; read-out: MIC. In short, it runs like this: as §1
For assay [17], the system named is Staphylococcus aureus SG511. To be noted: Staphylococcus aureus SG511; Muller-Hinton agar, 37° C., 18 hours; read-out: MIC. Put shortly: as §1
Assay [18] deals with Streptococcus faecium MD8b. To be noted: Enterococcus faecium, Muller-Hinton agar, 37° C., 18 hours, read-out: MIC. In short, it runs like this:
as §1

Assay [19] has as its system Streptococcus pyogenes 308A. To be noted: Muller-Hinton agar, 37° C., 18 hours, read-out: MIC. In short, it runs like this:
as §1

Assay [20] relates to Streptococcus pyogenes 77A. In short, it runs like this: as §1
Where [21] appears, read: Klebsiella aerogenes 1522E, Muller-Hinton agar, 37° C., 18 hours, read-out: MIC.
[22] abbreviates: Staphylococcus aureus 285, Muller-Hinton agar, 37° C., 18 hours, read-out: MIC.
[23] abbreviates: Streptococcus pyogenes 77A, Muller-Hinton agar, 37° C., 18 hours, read-out: MIC.

Each structure is given as a SMILES string. Where a name gives a salt, the structure may show the parent alone. Read-outs that look alike come from different tables or passages of the source.

As a reminder, the MIC is the lowest concentration that inhibits growth of the organism.

As for `CNCC1=CCN(c2c(F)cc3c(=O)c(C(=O)CC#N)cn(C4CC4)c3c2Cl)C1` [Example 43, 1-cyclopropyl-6-fluoro-8-chloro-7-(3-methylaminomethyl-2,5-dihydropyrrol-1-yl)-3-(2-cyanoacetyl)-1,4-dihydro-4-oxoquinoline hydrochloride], the minimal inhibitory concentration (MIC) in assay [1] came to 0.049 µg/mL; in assay [2], 0.391 µg/mL; in [3] (Escherichia coli 078, Muller-Hinton agar, 37° C., 18 hours, read-out: MIC) it was 6.25 µg/mL; in assay [4] (18 hours, read-out: MIC) it was 12.5 µg/mL; in assay [5], 3.12 µg/mL; in [6], 1.56 µg/mL. Besides, the MIC in assay [7] is 1.56 µg/mL; in assay [8] (setting [21]), 0.781 µg/mL; in assay [9], 0.098 µg/mL; in assay [10], 12.5 µg/mL; in [11], 1.56 µg/mL; in assay [12], 3.12 µg/mL. The MIC was found to be 6.25 µg/mL in assay [13]; 0.195 µg/mL in [14]; 3.12 µg/mL in assay [15] (setting [22]); 0.195 µg/mL in [16]; 3.12 µg/mL in assay [17]; 12.5 µg/mL in assay [18]. The MIC in assay [19] and in assay [20] (setting [23]) was 25 µg/mL throughout.

Take `N#CCC(=O)c1cn(C2CC2)c2c(Cl)c(N3CC4=C(CNC4)C3)c(F)cc2c1=O` [Example 44, 1-cyclopropyl-6-fluoro-8-chloro-7-(3,7-diazabicyclo[3.3.0]oct-1,5-en-3-yl)-3-(2-cyanoacetyl)-1,4-dihydro-4-oxoquinoline hydrochloride]: the minimum inhibitory concentration (MIC) in assay [1] is 0.098 µg/mL; in assay [2], 0.195 µg/mL; in assay [3] (Escherichia coli, 078, 18 h) it was 0.195 µg/mL; in assay [4] (Escherichia coli, 1507E, 18 h) it was 0.781 µg/mL; in assay [5], 3.12 µg/mL; in assay [6], 1.56 µg/mL. In addition, the MIC came to 0.391 µg/mL in assay [7]; 0.391 µg/mL in assay [8]; 0.195 µg/mL in assay [9]; 6.25 µg/mL in assay [10]; 3.12 µg/mL in assay [11]; 12.5 µg/mL in assay [12]. In addition, the MIC came out at 12.5 µg/mL in assay [13]; 0.195 µg/mL in assay [14]; 6.25 µg/mL in assay [15] (setting [22]); 6.25 µg/mL in assay [16]; 6.25 µg/mL in assay [17]; 25 µg/mL in [18]. For the same compound, the MIC in [19] and in [20] (setting [23]) was 25 µg/mL each time.

As to `N#CC(C#N)C(=O)c1cn(C2CC2)c2c(Cl)c(N3CCC(N)C3)c(F)cc2c1=O` (centres unmarked) [Example 45, 1-cyclopropyl-6-fluoro-8-chloro-7-(3-aminopyrrolidin-1-yl)-3-(2,2-dicyanoacetyl)-1,4-dihydro-4-oxoquinoline hydrochloride], the MIC in assay [1] was 0.098 µg/mL; in assay [2], 0.195 µg/mL; in assay [3] (Escherichia coli, 078, 18 h), 0.049 µg/mL; in assay [4] (Escherichia coli, 1507E, 18 h), 0.195 µg/mL; in assay [5] it was 1.56 µg/mL; in assay [6], 0.781 µg/mL. Also, the MIC in assay [7] worked out at 0.195 µg/mL; in [8] (setting [21]) it was 0.391 µg/mL; in assay [9], 0.049 µg/mL; in assay [10], 3.12 µg/mL; in assay [11] it was 0.781 µg/mL; in assay [12], 3.12 µg/mL. The minimal inhibitory concentration (MIC) is 6.25 µg/mL in assay [13]; 0.098 µg/mL in assay [14]; 1.56 µg/mL in assay [15] (setting [22]); 1.56 µg/mL in [16]; 0.781 µg/mL in [17]; 6.25 µg/mL in assay [18]. The MIC in [19] and in assay [20] (setting [23]) was 25 µg/mL in each case.

Take `CNCC1=CCN(c2c(F)cc3c(=O)c(C(=O)CS(C)(=O)=O)cn(C4CC4)c3c2Cl)C1` [Example 46, 1-cyclopropyl-6-fluoro-8-chloro-7-(3-methylaminomethyl-2,5-dihydropyrrol-1-yl)-3-(2-methanesulfonylacetyl)-1,4-dihydro-4-oxoquinoline hydrochloride]: the MIC worked out at 0.049 µg/mL in [1]; 0.098 µg/mL in assay [2]; 0.025 µg/mL in [3] (Escherichia coli, 078, 18 h); 0.098 µg/mL in assay [4] (Escherichia coli, 1507E, 18 h); 0.391 µg/mL in [5]; 0.098 µg/mL in assay [6]. The MIC in [7] came to 0.049 µg/mL; in assay [8] (setting [21]) it was 0.013 µg/mL; in assay [9], 0.013 µg/mL; in assay [10] it was 0.781 µg/mL; in assay [11], 0.195 µg/mL; in [12], 1.56 µg/mL. Besides, the minimum inhibitory concentration (MIC) in [13] stood at 1.56 µg/mL; in assay [14] it was 0.195 µg/mL; in assay [15] (setting [22]), 0.049 µg/mL; in assay [16], 0.049 µg/mL; in assay [17], 0.098 µg/mL; in [18], 0.195 µg/mL. Further, the results for the minimal inhibitory concentration (MIC) in assay [19] and in [20] (setting [23]) were 1.56 µg/mL and 0.391 µg/mL, respectively.

On to `CS(=O)(=O)CC(=O)c1cn(C2CC2)c2c(Cl)c(N3CC4=C(CNC4)C3)c(F)cc2c1=O` [Example 47, 1-cyclopropyl-6-fluoro-8-chloro-7-(3,7-diazabicyclo[3.3.0]oct-1,5-en-3-yl)-3-(2-methanesulfonylacetyl)-1,4-dihydro-4-oxoquinoline hydrochloride], for which the MIC is 0.049 µg/mL in [1]; 0.049 µg/mL in assay [2]; 0.195 µg/mL in [3] (Escherichia coli, 078, 18 h); 0.391 µg/mL in assay [4] (Escherichia coli, 1507E, 18 h); 0.781 µg/mL in assay [5]; 0.391 µg/mL in [6]. The minimal inhibitory concentration (MIC) in assay [7] was 0.195 µg/mL; in assay [8] (setting [21]) it was 0.049 µg/mL; in [9], 0.098 µg/mL; in assay [10], 0.781 µg/mL; in assay [11], 0.195 µg/mL; in assay [12] it was 0.781 µg/mL. The minimal inhibitory concentration (MIC) in assay [13] was 1.56 µg/mL; in assay [14], 0.098 µg/mL; in assay [15], 0.195 µg/mL; in assay [16], 0.391 µg/mL; in assay [17], 0.391 µg/mL; in assay [18], 0.781 µg/mL. Also, the MIC is 1.56 µg/mL in assay [19] and 0.781 µg/mL in assay [20] (Streptococcus pyogenes, 77A, 18 h).

For `CC(=O)C(C(C)=O)C(=O)c1cn(C2CC2)c2c(Cl)c(N3CCC(N)C3)c(F)cc2c1=O` (centres unmarked) [Example 48, 1-cyclopropyl-6-fluoro-8-chloro-7-(3-aminopyrrolidin-1-yl)-3-(2,2-diacetoacetyl)-1,4-dihydro-4-oxoquinoline hydrochloride], the minimum inhibitory concentration (MIC) in [1] is 0.098 µg/mL; in assay [2] it was 0.098 µg/mL; in [3] (Escherichia coli, 078, 18 h), 0.049 µg/mL; in assay [4] (Escherichia coli, 1507E, 18 h), 0.195 µg/mL; in assay [5] it was 0.391 µg/mL; in [6], 0.098 µg/mL. Also, the MIC in [7] came to 0.049 µg/mL; in [8] (setting [21]), 0.195 µg/mL; in assay [9], 0.195 µg/mL; in assay [10], 1.56 µg/mL; in assay [11] it was 0.781 µg/mL; in [12], 3.12 µg/mL. In addition, the MIC was 3.12 µg/mL in assay [13]; 0.391 µg/mL in assay [14]; 0.195 µg/mL in assay [15] (setting [22]); 0.195 µg/mL in assay [16]; 0.195 µg/mL in assay [17]; 0.195 µg/mL in [18]. Further, the MIC in assay [19] was determined as 0.781 µg/mL; in assay [20] (setting [23]), 0.391 µg/mL.

With `COc1c(N2CCC(N)C2)c(F)cc2c(=O)c(C(=O)C[N+](=O)[O-])cn(C3CC3)c12` (centres unmarked) [Example 49, 1-cyclopropyl-6-fluoro-8-methoxy-7-(3-aminopyrrolidin-1-yl)-3-(2-nitroacetyl)-1,4-dihydro-4-oxoquinoline hydrochloride], the MIC in assay [1] came to 0.025 µg/mL; in assay [2], 0.049 µg/mL; in assay [3] (Escherichia coli, 078, 18 h), 0.049 µg/mL; in [4] (Escherichia coli, 1507E, 18 h) it was 0.098 µg/mL; in assay [5], 0.391 µg/mL; in assay [6] it was 0.098 µg/mL. Moreover, the MIC is 0.049 µg/mL in assay [7]; 0.098 µg/mL in assay [8] (setting [21]); 0.013 µg/mL in assay [9]; 1.56 µg/mL in assay [10]; 0.781 µg/mL in assay [11]; 3.12 µg/mL in assay [12]. The MIC worked out at 3.12 µg/mL in assay [13]; 0.049 µg/mL in assay [14]; 0.098 µg/mL in [15] (setting [22]); 0.098 µg/mL in assay [16]; 0.098 µg/mL in assay [17]; 0.195 µg/mL in [18]. Also, the minimal inhibitory concentration (MIC) in [19] turned out to be 0.391 µg/mL; in assay [20] (setting [23]), 0.098 µg/mL.

The values are drawn from patent US5409933A, “Quinoline derivatives and processes for preparing the same” (priority 1993, dated 1995).
